Source: patent publication US9512140B2, “(Thieno[2,3-b][1,5]benzoxazepin-4-yl)piperazin-1-yl compounds as dual activity H1 inverse agonists/5-HT2A antagonists” (priority 2011, dated 2016)
Counter-ions that a name gives are not always drawn.

What was measured:
[1] = test system: Rats; test: Rat sleep studies, coadministration with citalopram; assay type: in vivo; settings: coadministered with citalopram
[2] = target: T1, recombinant 5-HT2C receptor (human) (Homo sapiens, UniProt P28335); test: 5-HT2C competition binding assay ([125I]-DOI, SPA)
T1 construct: expressed in transfected cells; host or cells: AV-12 (membranes)
T1 sequence (P28335 33-458): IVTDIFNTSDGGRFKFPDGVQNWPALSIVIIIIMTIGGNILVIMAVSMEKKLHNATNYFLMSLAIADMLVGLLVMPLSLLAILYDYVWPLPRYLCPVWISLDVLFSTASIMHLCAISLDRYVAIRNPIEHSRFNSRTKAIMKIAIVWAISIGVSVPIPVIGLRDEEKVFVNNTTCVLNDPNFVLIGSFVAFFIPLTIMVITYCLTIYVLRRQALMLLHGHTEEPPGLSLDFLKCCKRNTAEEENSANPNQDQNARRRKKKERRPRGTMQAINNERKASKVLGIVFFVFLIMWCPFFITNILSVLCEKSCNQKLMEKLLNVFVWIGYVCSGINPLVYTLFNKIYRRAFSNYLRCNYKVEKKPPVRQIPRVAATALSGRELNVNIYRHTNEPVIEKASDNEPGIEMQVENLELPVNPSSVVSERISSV
Experimental: [^125I]-(±)DOI binding experiments are carried out in SPA 96-well format. Membranes used in this assay are prepared from AV-12 cells stably expressing recombinant 5-HT2C receptor (human). The incubation is initiated by the addition of a mixture of WGA PVT SPA beads (0.5 mg/well, Perkin Elmer (MA, USA), RPNQ0001) and 2.5 μg membranes to assay buffer (50 mM Tris-HCl, 10 mM MgCl2, 0.5 mM EDTA, 10 μM pargyline, 0.1% ascorbic acid, pH7.4) containing 0.2 nM [[^125I]-(±)DOI and varying concentrations of the test compound (10 point concentration response curves). Non-specific binding is determined in the presence of 20 μM 1-(1-Naphthyl) piperazine. Samples are incubated for 4 hr. at room temperature (22° C.) and then read in a Microbeta Trilux.
Curves are evaluated using a 4-parameter logistic nonlinear equation to obtain the concentration of competitor causing 50% inhibition of radioligand binding (IC50). Equilibrium dissociation constants (Ki) are calculated according to the equation Ki=IC50/(1+L/Kd), where L equals the concentration of radioligand used in the experiment and Kd equals the equilibrium dissociation constant of the radioligand for the receptor, determined from standard saturation analysis or homologous competition experiments. […]

[3] = target: T2, 5-HT2A Receptor (Rattus norvegicus, UniProt P14842); test: 5-HT2A receptor occupancy (MDL 100907 tracer); assay type: in vivo; settings: oral gavage, RO 1 hr. after dosing
T2 construct: from tissue; host or cells: rat brain (frontal cortex against cerebellum), in vivo
T2 sequence (P14842 whole entry): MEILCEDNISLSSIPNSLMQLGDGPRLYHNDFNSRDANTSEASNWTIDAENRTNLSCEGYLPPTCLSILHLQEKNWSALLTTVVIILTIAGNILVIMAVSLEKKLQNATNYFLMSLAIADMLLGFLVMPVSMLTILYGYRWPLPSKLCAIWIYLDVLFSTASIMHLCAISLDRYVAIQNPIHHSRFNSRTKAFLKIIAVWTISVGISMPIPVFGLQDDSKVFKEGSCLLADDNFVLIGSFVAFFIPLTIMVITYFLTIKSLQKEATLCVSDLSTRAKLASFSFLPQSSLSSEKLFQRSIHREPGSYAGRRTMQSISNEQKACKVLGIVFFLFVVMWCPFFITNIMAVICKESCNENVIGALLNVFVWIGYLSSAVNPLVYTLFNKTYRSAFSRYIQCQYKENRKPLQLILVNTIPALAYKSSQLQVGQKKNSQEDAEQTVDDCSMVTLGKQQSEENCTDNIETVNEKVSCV
Experimental: Briefly, male Sprague-Dawley rats (Harlan Sprague-Dawley, Indianapolis, Ind.) weighing approximately 230-280 grams are given ad lib access to food and water until the beginning of the 3-hr. experimental protocol. 1 mg/kg ketanserin (non-selective 5-HT2A antagonist) is used as a positive control to establish assay validity. Test compounds or control are administered by oral gavage in a vehicle comprised of 20% hydroxypropyl beta-cyclodextrin. MDL 100907 ((R)-(+)-α-(2,3-Dimethoxyphenyl)-1-[2-(4-fluorophenyl)ethyl]-4-piperidinemethanol), a selective 5-HT2A antagonist, is used as a tracer. […] It is at the time of tracer administration that RO is considered to be measured. […] The level of MDL 100907 tracer is measured in each cortical and cerebellar sample. RO is calculated using the well-established ratio method which employs a region of high receptor density representative of total binding (frontal cortex) normalized by an area without or with very low levels of receptor (cerebellum). […]
Cortex and cerebellar samples are weighed and placed in conical centrifuge tubes on ice. […] Standards are prepared by adding known quantities of analyte to brain tissue samples from non-treated rats and processing as described above. […]

[4] = target: Adrenergic alpha1B (Homo sapiens, UniProt P35368); test: Adrenergic alpha1B binding
Chain of Adrenergic alpha1B (P35368 whole entry): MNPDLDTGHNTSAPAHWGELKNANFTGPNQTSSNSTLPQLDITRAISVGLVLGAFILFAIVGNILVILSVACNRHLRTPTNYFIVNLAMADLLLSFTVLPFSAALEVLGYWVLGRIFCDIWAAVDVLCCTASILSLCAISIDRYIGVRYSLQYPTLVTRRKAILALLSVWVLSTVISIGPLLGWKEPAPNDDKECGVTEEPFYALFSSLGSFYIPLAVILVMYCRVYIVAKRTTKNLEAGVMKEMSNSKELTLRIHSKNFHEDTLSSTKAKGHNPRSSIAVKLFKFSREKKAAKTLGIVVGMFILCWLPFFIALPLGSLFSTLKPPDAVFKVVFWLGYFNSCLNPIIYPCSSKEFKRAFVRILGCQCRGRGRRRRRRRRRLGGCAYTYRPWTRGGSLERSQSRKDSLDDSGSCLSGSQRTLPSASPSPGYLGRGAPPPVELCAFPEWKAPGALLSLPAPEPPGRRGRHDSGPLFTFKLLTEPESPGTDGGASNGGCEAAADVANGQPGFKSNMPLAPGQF
Source text: (§1) Further, the compounds of the invention may be tested in binding assays and functional activity assays by well known methods for other physiologically important receptors such as, but not limited to, the hERO channel, other serotonin receptors (specifically 5-HT1B, 5-HT1D, receptors, lack of agonist activity at 5-HT2B receptors, 5-HT2C, 5-HT5, 5-HT6, and 5-HT7 receptors), dopaminergic receptors (specifically D1, D2, and D3), GABAA receptors, adrenergic receptors and monoamine transporters.

[5] = target: Norepinephrine Transport (Homo sapiens, UniProt P23975); test: Norepinephrine transporter binding
Chain of Norepinephrine Transport (P23975 whole entry): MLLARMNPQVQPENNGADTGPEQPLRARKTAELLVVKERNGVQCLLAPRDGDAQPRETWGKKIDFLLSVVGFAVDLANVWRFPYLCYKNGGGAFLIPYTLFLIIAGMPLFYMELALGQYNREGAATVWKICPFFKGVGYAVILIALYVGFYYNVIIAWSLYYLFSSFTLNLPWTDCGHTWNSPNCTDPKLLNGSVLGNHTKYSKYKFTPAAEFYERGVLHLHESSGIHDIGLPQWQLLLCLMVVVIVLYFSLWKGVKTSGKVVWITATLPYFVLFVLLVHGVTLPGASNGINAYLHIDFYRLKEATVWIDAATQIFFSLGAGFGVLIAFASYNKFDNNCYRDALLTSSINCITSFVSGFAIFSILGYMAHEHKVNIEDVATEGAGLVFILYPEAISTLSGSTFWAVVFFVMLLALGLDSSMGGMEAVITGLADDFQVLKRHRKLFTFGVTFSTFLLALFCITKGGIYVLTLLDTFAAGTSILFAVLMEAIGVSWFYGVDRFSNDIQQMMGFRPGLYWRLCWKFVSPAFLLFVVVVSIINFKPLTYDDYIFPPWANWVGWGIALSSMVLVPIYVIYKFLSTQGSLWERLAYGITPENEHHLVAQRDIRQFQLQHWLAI
Source text: as §1

[6] = target: 5-HT1D (Homo sapiens, UniProt P28221); test: 5-HT1D binding
Chain of 5-HT1D (P28221 whole entry, species assumed): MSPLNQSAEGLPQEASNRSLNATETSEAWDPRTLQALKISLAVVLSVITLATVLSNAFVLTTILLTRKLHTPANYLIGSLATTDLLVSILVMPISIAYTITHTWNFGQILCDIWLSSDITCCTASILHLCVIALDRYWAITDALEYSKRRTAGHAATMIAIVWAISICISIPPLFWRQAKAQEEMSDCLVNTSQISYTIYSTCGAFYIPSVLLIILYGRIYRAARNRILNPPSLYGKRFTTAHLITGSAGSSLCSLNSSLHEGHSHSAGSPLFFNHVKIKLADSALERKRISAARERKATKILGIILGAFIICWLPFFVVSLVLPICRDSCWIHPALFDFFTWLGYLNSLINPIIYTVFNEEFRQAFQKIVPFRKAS
Source text: as §1

[7] = target: Adrenergic alpha2B (Homo sapiens, UniProt P18089); test: Adrenergic alpha2B binding
Chain of Adrenergic alpha2B (P18089 whole entry): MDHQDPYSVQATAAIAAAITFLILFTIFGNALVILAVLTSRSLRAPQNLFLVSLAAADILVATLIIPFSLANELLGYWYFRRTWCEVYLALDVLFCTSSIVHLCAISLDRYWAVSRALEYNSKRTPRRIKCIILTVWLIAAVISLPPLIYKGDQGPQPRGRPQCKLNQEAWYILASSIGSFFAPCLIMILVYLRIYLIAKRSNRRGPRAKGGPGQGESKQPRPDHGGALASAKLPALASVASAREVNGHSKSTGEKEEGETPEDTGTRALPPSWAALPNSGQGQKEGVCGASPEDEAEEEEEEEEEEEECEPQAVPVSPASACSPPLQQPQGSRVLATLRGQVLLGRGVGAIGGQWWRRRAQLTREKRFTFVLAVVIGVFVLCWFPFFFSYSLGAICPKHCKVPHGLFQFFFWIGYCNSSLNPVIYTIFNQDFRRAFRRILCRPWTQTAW
Source text: as §1

[8] = target: Adrenergic alpha2A (Homo sapiens, UniProt P08913); test: Adrenergic alpha2A binding
Chain of Adrenergic alpha2A (P08913 whole entry): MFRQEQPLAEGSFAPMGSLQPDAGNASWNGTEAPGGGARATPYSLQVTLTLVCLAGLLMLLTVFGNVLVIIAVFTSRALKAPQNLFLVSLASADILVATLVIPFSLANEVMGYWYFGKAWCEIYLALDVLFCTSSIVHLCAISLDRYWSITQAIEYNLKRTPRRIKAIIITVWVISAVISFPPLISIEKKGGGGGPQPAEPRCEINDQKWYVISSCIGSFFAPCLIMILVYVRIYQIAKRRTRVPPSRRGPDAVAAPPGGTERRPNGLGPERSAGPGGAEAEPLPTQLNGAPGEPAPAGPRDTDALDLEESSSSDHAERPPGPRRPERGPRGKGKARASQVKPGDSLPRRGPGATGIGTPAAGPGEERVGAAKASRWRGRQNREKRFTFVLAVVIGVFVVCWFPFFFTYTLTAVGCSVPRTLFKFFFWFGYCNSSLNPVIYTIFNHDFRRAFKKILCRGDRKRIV
Source text: as §1

`Cc1ccc2c(c1)Oc1sc(C)cc1C(N1CCN(CC(C)(C)C(=O)O)CC1)=N2` [Example 2, 3-[4-(2,8-Dimethylthieno[2,3-b][1,5]benzoxazepin-4-yl)piperazin-1-yl]-2,2-dimethyl-propanoic acid dihydrochloride] was tested, and the “NREM sleep on coadministration with citalopram” value [1] was “significantly increase NREM sleep at significantly lower doses”, the Ki [2] was 883 nM and the ED50 [3] was 0.09 mg/kg. It also gave a Ki [4] greater than 16.2 µM, a Ki [5] greater than 674 nM and a Ki [6] greater than 3.98 µM. The Ki [7] was 3.71 µM and the Ki [8] was greater than 9.02 µM.
